Like-named read-outs stand apart in the source and are kept apart here.
Columns and labels:
HEK293 cells = test: Cytotoxicity on HEK293 cells (Alamar Blue); type: cell-based, Human; conditions: ratio of the minimum inhibitory concentration of HEK293 cells (50 µM) to the IC50 of Pf3D7
Method: Cells were seeded out at 1.5 × 10^3 cells per well in a 96-well cell culture plate (TPP, Switzerland).
After 24 h, Alamar Blue reagent (Invitrogen, CA) was added according to the manufacturer's instructions and incubated again for 21 h before samples were analyzed.

[1] = system: P. falciparum 3D7-infected erythrocytes; test: Plasmodium falciparum growth inhibition assay (SYBR Green I, flow cytometry), drug-sensitive strain; type: cell-based; conditions: Plasmodium falciparum, 3D7, Erythrocyte, 48 h incubation
Method: (§1) Plates were incubated under standard P. falciparum culture conditions for 48 h. […] Fixed parasitized red blood cells (RBC) were stored at 4 °C in the dark until flow cytometry analysis. Parasite growth was assessed by flow cytometry on a BD FACS Cantoll (BD Biosciences) or a Attune™ NxT Flow Cytometer (Invitrogen). Cell doublets were excluded from the analysis using a forward scatter (FSC)-width versus FSC-area dot plot. Infected and uninfected erythrocytes were gated on the basis of their FSC and side scatter (SSC) signals. Fluorescence analysis (Green fluorescence FITC) was performed using BD FACSDiva software (BD Biosciences) on a total of 200,000 acquired events. […] Fluorescence of non-infected RBC was adjusted to plot between 10° and 10^2. Results are expressed as the percentage of growth inhibition.
(§2) All IC50 values were calculated using log-linear interpolation (www.antimalarial-icestimator.net), with mean values (± SD) determined over at least two independent experiments.

[2] = system: multidrug-resistant P. falciparum line Dd2; test: Plasmodium falciparum growth inhibition assay (SYBR Green I, flow cytometry), multidrug-resistant line; type: cell-based; conditions: line resistant to CQ, PYR and mefloquine, mean ± SD
Method: as §1, §2

[3] = system: P. berghei ANKA parasites; test: Peters 4-day suppressive test, oral efficacy in P. berghei-infected mice; type: in vivo, Plasmodium berghei; conditions: for activity in vivo against Plasmodium berghei: Experiment 2 (Fig. 2), 10mg/kg orally twice a day on days 0,1,2,3; for activity in vivo against Plasmodium berghei / number of mice showing blood parasites / parasitemia (mean ± sd): Balb/C mice; for parasites in treated mice, follow-up: until the end of the experiments; for parasite clearance after oral administration: 10 mg/kg
Method: Compounds powder was dissolved in DMSO and sonicated for 10 min. Appropriate volume of 50%W/v HPβCD was added dropwise under gentle swirling. After 10 min sonication, DPBS was added dropwise under gentle swirling and the mixture was sonicated again for 10 min. After checking the pH (5.5 - 7), the solution was filtered (0.22µm) and conserved at room temperature for max 2 days. Final concentration of compounds was 2.5 mg/mL, 1 mg/mL or 0.1 mg/mL for mice treatment with 25 mg/kg, 10 mg/kg or 1mg/kg doses.
10 weeks-old Balb/C male mice were purchased from Janvier Labs.
P. berghei ANKA parasites stabilates conserved in liquid nitrogen were thawed and injected intraperitoneally (ip) into 2-3 mice (10^6 infected red blood cells (RBC) / mouse). When parasitemia reached 3-5%, mice were bled and groups of six BALB/c male mice were infected with 10^6 P. berghei ANKA parasites (day 0), and treated per os (p.o.) twice a day on days 0, 1, 2 and 3. […] On day 4 post infection (p.i.), the peripheral blood parasitemia of all mice was evaluated via microscopic examination of Giemsa-stained thin blood smears. Parasitemia was then followed for two weeks.

[4] = mean ± SD, n ≥ 2, read-out: Pf3D7 IC50
[5] = Plasmodium falciparum, DD2, 48 h, n ≥ 2, read-out: PfDd2 IC50
[6] = Experiment 3, 1 mg/kg p.o. twice a day on days 0-3, day 4 p.i.
[7] = Experiment 3, 1 mg/kg p.o. twice a day on days 0-3, day 5 p.i.
[8] = Experiment 3, 1 mg/kg p.o. twice a day on days 0-3, day 6 p.i.
[9] = Experiment 3, 1 mg/kg p.o. twice a day on days 0-3, day 7 p.i.
[10] = Experiment 3, 1 mg/kg p.o. twice a day on days 0-3, day 8 p.i.
[11] = Experiment 3, 1 mg/kg p.o. twice a day on days 0-3, day 10 p.i.
[12] = Experiments 1 and 2, 10 mg/kg p.o. twice a day on days 0-3, day 4 p.i.
[13] = Experiments 1 and 2, 10 mg/kg p.o. twice a day on days 0-3

`CCc1nc(N)nc(N)c1OCCOc1ccccc1CCC(=O)NO.Cl` [2·HCl, 3-(2-[2-(2,4-Diamino-6-ethylpyrimidin-5-yloxy)ethoxy]phenyl)-N-hydroxypropanamide hydrochloride] was tested, and the “Selectivity Index HEK293 / Pf3D7” value (HEK293 cells) was over 4.4E+06 and the IC50 [1, 4] was 11.4 ± 7.9 nM.
In the case of `CCc1nc(N)nc(N)c1OCCCOc1cccc(C(=O)NO)c1.Cl` [8·HCl, 3-[3-(2,4-Diamino-6-ethylpyrimidin-5-yloxy)propoxy]-N-hydroxybenzamide hydrochloride], the IC50 [1, 4] is reported as 0.845 ± 0.108 nM, the IC50 [2, 5] is reported as 138 nM and the IC50 ([2]; 48 h, n ≥ 2, listed as 8, hydrochloride, read-out: PfDd2 IC50) is reported as 138 ± 25.4 nM. The “activity in vivo against Plasmodium berghei” value [3] was “active in vivo”, the “ranking of activity against P. berghei infection” value ([3]; Experiment 3, 1 mg/kg p.o. twice a day on days 0-3) was “most active” and the “parasites in treated mice” value [3, 6] was “undetectable”. The “number of mice showing blood parasites” value [3, 6] was 0/6, the “parasitemia (mean ± sd)” value [3, 6] was 0% and the “number of mice showing blood parasites” value [3, 7] was 0/6. The “parasitemia (mean ± sd)” value [3, 7] was 0%, the “number of mice showing blood parasites” value [3, 8] was 2/6 and the “parasitemia (mean ± sd)” value [3, 8] was 0,08 ± 0,13%. For the same compound, the “number of mice showing blood parasites” value [3, 9] was 2/6, the “parasitemia (mean ± sd)” value [3, 9] was 0,32 ± 0,49% and the “number of mice showing blood parasites” value [3, 10] was 3/6. For the same compound, the “parasitemia (mean ± sd)” value [3, 10] was 1,37 ± 2,07%, the “number of mice showing blood parasites” value [3, 11] was 4/6 and the “parasitemia (mean ± sd)” value [3, 11] was 2,41 ± 2,84%. For the same compound, the “parasites in treated mice” value [3, 12] was “undetectable”, the “parasites in treated mice, follow-up” value [3, 13] was “remained undetectable” and the “parasite clearance after oral administration” value [3] was “achieved parasite clearance”.
Work on `CCc1nc(N)nc(N)c1OCCCOc1ccccc1/C=C/C(=O)NO.Cl` [13·HCl, (E)-3-{2-[3-(2,4-Diamino-6-ethylpyrimidin-5-yloxy)propoxy]phenyl}-N-hydroxyacrylamide hydrochloride] yielded an IC50 [1, 4] of 0.081 ± 0.043 nM, an IC50 ([1]; read-out: IC50 (Pf3D7)) of under 0.1 nM and an IC50 [2, 5] of 11.1 ± 7.2 nM. For the same compound, the “activity in vivo against Plasmodium berghei” value [3] was “active in vivo”, the “number of mice showing blood parasites” value [3, 6] was 2/6 and the “parasitemia (mean ± sd)” value ([3]; Experiment 3, 1 mg/kg p.o. twice a day on days 0-3, day 4 p.i., hydrochloride, 1 mg/kg) was 0,12 ± 0,18%. For the same compound, the “parasitemia (mean ± sd)” value ([3]; Experiment 3, 1 mg/kg p.o. twice a day on days 0-3, day 4 p.i., listed as 13, hydrochloride, 1 mg/kg) was 0.12%, the “number of mice showing blood parasites” value [3, 7] was 3/6 and the “parasitemia (mean ± sd)” value [3, 7] was 0,55 ± 0,83%. The “number of mice showing blood parasites” value [3, 8] was 4/6, the “parasitemia (mean ± sd)” value [3, 8] was 2,05 ± 2,37% and the “number of mice showing blood parasites” value [3, 9] was 5/6. For the same compound, the “parasitemia (mean ± sd)” value [3, 9] was 2,39 ± 2,22%, the “number of mice showing blood parasites” value [3, 10] was 5/6 and the “parasitemia (mean ± sd)” value [3, 10] was 3,94 ± 3,06%. For the same compound, the “number of mice showing blood parasites” value [3, 11] was 5/5, the “parasitemia (mean ± sd)” value [3, 11] was 6,02 ± 2,66% and the “parasites in treated mice” value [3, 12] was “undetectable”. The “parasites in treated mice, follow-up” value [3, 13] was “remained undetectable” and the “parasite clearance after oral administration” value [3] was “achieved parasite clearance”.
With `CCc1nc(N)nc(N)c1OCCCOc1cccc(C(=O)NOCc2ccccc2)c1` [Compound 12, N-(Benzyloxy)-3-[3-(2,4-diamino-6-ethylpyrimidin-5-yloxy)propoxy]benzamide] the “Selectivity Index HEK293 / Pf3D7” value (HEK293 cells) was over 1.0E+07 and the IC50 [1, 4] was 4.84 ± 1.05 nM.

From patent publication EP4438596A1, “DIAMINOPYRIMIDINE DERIVATIVES AS HDAC AND DHFR DUAL-TARGETING INHIBITORS AND USE THEREOF IN PREVENTING AND TREATING MALARIA” (Université de Lille, priority 2023, dated 2024)
